ChEMBL document CHEMBL5726546, “Dihydroquinoline pyrazolyl compounds” (2017)

Experiments:
[1] = biological target: T1, Cytochrome P450 11B1, mitochondrial (Homo sapiens, UniProt P15538); assay: (§1) Inhibition Assay: The expression plasmids contains the ORF for either human/cyno CYP11B1 or CYP11B2 under the control of a suitable promoter (CMV-promoter) and a suitable resistance marker (neomycin). Using standard techniques the expression plasmid is transfected into G-402 cells and these cells are then selected for expressing the given resistance markers. Individual cell-clones are then selected and assessed for displaying the desired enzymatic activity using 11-Deoxycorticosterone (Cyp11B2) or 11-Deoxycortisol (Cyp11B1) as a substrate.G-402 cells expressing CYP11 constructs were established as described above and maintained in McCoy's 5a Medium Modified, ATCC Catalog No. 30-2007 containing 10% FCS and 400 μg/ml G418 (Geneticin) at 37° C. under an atmosphere of 5% CO2/95% air. Cellular enzyme assays were performed in DMEM/F12 medium containing 2.5% charcoal treated FCS and appropriate concentration of substrate (0.3-10 uM 11-Deoxycorticosterone, 11-Deoxycortisol or Corticosterone). For assaying enzymatic activity, cells were plated onto 96 well plates and incubated for 16 h. An aliquot of the supernatant is then transferred and analyzed for the concentration of the expected product (Aldosterone for CYP11B2; Cortisol for CYP11B1). The concentrations of these steroids can be determined using HTRF assays from CisBio analyzing either Aldosterone or Cortisol.
T1 sequence (P15538 whole entry): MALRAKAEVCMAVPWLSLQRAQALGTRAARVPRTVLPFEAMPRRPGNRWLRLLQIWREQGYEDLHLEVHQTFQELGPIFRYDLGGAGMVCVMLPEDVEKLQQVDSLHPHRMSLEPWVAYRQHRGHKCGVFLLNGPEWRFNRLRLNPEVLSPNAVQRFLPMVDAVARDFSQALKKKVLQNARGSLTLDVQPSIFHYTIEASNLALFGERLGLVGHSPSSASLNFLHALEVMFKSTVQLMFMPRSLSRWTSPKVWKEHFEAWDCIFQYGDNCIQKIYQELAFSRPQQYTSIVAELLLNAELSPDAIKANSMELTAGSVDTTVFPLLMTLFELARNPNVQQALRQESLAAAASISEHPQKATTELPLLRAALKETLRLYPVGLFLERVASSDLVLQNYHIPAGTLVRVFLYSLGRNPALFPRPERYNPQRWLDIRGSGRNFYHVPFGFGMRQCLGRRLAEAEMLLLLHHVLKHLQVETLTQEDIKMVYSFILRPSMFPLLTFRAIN

[2] = biological target: T2, Cytochrome P450 11B2, mitochondrial (Homo sapiens, UniProt P19099); assay: as §1
T2 sequence (P19099 whole entry): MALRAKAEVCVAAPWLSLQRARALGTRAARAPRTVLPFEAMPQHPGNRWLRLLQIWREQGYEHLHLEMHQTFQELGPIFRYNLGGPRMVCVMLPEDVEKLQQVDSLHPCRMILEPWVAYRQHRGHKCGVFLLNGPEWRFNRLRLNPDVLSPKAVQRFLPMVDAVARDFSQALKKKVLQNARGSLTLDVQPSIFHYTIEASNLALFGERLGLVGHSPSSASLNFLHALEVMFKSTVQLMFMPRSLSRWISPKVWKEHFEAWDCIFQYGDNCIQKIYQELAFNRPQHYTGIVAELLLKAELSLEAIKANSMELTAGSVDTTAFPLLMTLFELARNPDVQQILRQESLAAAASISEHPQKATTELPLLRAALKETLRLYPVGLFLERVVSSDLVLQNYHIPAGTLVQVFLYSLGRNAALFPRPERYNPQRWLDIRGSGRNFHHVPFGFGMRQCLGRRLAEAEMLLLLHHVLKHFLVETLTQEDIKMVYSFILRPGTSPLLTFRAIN

SMILES	EC50 [1]	EC50 [2]
CC(=O)N1CCC(C(C)c2c[nH]nc2-c2cc3c(cc2F)N(C)C(=O)CC3)CC1 (racemic)	0.067 nM	
CN1C(=O)CCc2c1ccc(-c1n[nH]cc1CC1CCN(S(=O)(=O)c3ccnn3C)CC1)c2F	0.704 nM	0.014 nM
CN1C(=O)CCc2c1ccc(-c1n[nH]cc1CC1CCN(C(=O)c3ccnn3C)CC1)c2F	0.076 nM	
CC(=O)N1CCC([C@@H](C)c2c[nH]nc2-c2ccc3c(c2F)CCC(=O)N3C)CC1 (single isomer, unassigned)	0.074 nM	0.012 nM
CC(=O)N1CCC([C@H](C)c2c[nH]nc2-c2ccc3c(c2F)CCC(=O)N3C)CC1 (single isomer, unassigned)		0.064 nM
CC(=O)N1CCC(C(C)c2c[nH]nc2-c2ccc3c(c2F)CCC(=O)N3C)CC1 (racemic)	0.049 nM	
